PubChem BioAssay AID1159558 (GlaxoSmithKline (GSK), 2015)
Activity calls are given as the source filed them.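 The calls were made as follows: active = IC50 against T. cruzi CYP51 below a set limit; inactive = the rest.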

These compounds were tested against Sterol 14-alpha demethylase (Trypanosoma cruzi (strain CL Brener)) (UniProt Q7Z1V1) (assay: T. cruzi sterol 14-alpha demethylase inhibition – biochemical, recombinant enzyme, mechanism study for T. cruzi antiparasitic project, dose response (AID 1159558;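 also: enzyme in bacterial membranes with Anopheles gambiae CYP reductase and cytochrome b5 partners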)). Conditions: recombinant T. cruzi CYP51, BOMCC fluorescence.
Sequence of Sterol 14-alpha demethylase (Trypanosoma cruzi (strain CL Brener)) (Q7Z1V1 whole entry, looked up): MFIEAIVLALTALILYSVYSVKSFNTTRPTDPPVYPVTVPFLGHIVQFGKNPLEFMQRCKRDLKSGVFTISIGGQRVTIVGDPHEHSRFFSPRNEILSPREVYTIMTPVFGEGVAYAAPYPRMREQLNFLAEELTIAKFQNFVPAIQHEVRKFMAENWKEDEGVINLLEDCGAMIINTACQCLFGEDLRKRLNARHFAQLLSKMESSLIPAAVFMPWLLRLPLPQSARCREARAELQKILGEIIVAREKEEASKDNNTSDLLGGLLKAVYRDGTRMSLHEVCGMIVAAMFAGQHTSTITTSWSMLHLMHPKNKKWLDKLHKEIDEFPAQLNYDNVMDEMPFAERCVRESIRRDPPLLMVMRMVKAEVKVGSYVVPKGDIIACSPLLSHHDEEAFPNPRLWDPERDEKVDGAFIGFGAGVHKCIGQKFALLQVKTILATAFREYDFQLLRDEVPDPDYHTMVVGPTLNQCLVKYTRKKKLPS

Row | Compound | IC50
1 | CCOc1ccc(NC(=O)C=Cc2ccc(CC)o2)cc1 | > 100 µM (inactive)
2 | O=C(NCCc1csc(-c2cccc(F)c2)n1)c1ccco1 | > 100 µM (inactive)
3 | CC1(C)CCC(=Cc2ccc(Cl)cc2)CC1(O)Cn1ccnc1 (centres undefined) | 0.05 µM
4 | Cc1cc(=O)n2nc(Oc3ccc(C#N)cc3Cl)sc2n1 | > 100 µM (inactive)
5 | CC(C)n1c(-c2nonc2N)nc2cccc(OCCN3CCCC3)c21 | 40 µM
6 | COc1ccc(-c2csc(NC(=O)c3ccc([N+](=O)[O-])s3)n2)cc1OC | > 100 µM (inactive)
7 | CC(=O)Nc1ccc(CN2CCC(N3CC(c4ccccc4)(c4ccccc4)OCC3=O)CC2)cc1 | > 100 µM (inactive)
8 | CN(C)S(=O)(=O)c1cccc(CSc2nnc(-c3ccc4c(c3)OCO4)o2)c1 | 13 µM
9 | Cc1cc(Nc2ccc(C#N)c(Cl)c2C)n[nH]1 | 40 µM
10 | O=C(Nc1n[nH]c(-c2ccccn2)n1)C1CC1c1ccccc1 (centres undefined) | > 100 µM (inactive)
11 | COc1cccc2sc(CN(C)C(=O)C3CNCCN3c3ccc(F)cc3)c(C)c12 (centres undefined) | 0.25 µM
12 | CCCCn1nnnc1CSc1nc(C)cc(C)c1C#N | 50 µM
13 | c1cc(-c2ncc(-c3ccn[nH]3)s2)ccn1 | 0.04 µM
14 | COc1cccc(C(=O)[C@H]2C[C@@H]2CN(Cc2ccccn2)Cc2ccccn2)c1 | 32 µM
15 | Clc1ccc(CN2CCN(C3=NCCN3)CC2)cc1Cl | > 100 µM (inactive)
16 | Cc1cccnc1CN1CCN(CCCOc2ccc(-c3ccc(C(N)=O)cc3)cc2)CC1 | > 100 µM (inactive)
17 | COc1cc(-c2nc(N3CCOCC3)sc2-c2ccnc(NC3CCOCC3)n2)ccc1Cl | > 100 µM (inactive)
18 | OC1CCC(Nc2nccc(-c3sc(C4CCOCC4)nc3-c3ccc(F)c(F)c3)n2)CC1 (centres undefined) | > 100 µM (inactive)
19 | Cc1nc2c(-c3nc(-c4ccc(N)cc4)n[nH]3)cccn2c1C | > 100 µM (inactive)
20 | O=C(CSc1nnc(-c2ccc3c(c2)OCO3)o1)N(Cc1ccco1)CC(F)(F)F | 25 µM
21 | Cc1cc(C)nc(N2CCC(N(Cc3cccnc3)C(=O)c3cccc(C#N)c3)CC2)n1 | 0.13 µM
22 | O=C(c1cnn(-c2ccccc2)n1)N1CCCC(n2ccnc2)C1 (centres undefined) | 0.079 µM

Row | Compound | IC50
23 | O=[N+]([O-])c1ccc(C2=CC(c3ccccc3)=NCCN2)cc1 | 50 µM
24 | CS(=O)(=O)N1CCC(Nc2ncc(Br)c(Nc3cccc(F)c3C(N)=O)n2)CC1 | > 100 µM (inactive)
25 | COc1cccc(NS(=O)(=O)c2ccc3[nH]cc(C(=O)NCCC(C)C)c(=O)c3c2)c1 | 6.3 µM
26 | Cc1c(C#N)c([N+](=O)[O-])nn1Cc1cccc(Cl)c1Cl | > 100 µM (inactive)
27 | Cc1ncsc1CNc1cnc(-c2ccc3c(c2)OCCO3)c(-c2cnn(C)c2)c1 | 7.9 µM
28 | COc1ccc(S(=O)(=O)Nc2ccc(CN3CCN(C(=O)c4cccc(C#N)c4)CC3)cc2)cc1 | > 100 µM (inactive)
29 | Cc1cc(NC(=O)C2CCCCC2)n(-c2nc3c(c(=O)[nH]2)CCC3)n1 | > 100 µM (inactive)
30 | Cc1cc(N(C)C)nc2ccc(Cc3cnc(N)nc3N)cc12 | > 100 µM (inactive)
31 | COc1cnc2ccc(=O)n(CCN3CCC(NC/C=C/c4cc(F)ccc4F)CC3)c2c1 | 16 µM
32 | CNC(=O)C1Cc2ccccc2N1C(=O)Cc1ccccc1 (centres undefined) | > 100 µM (inactive)
33 | CN(C)S(=O)(=O)c1ccc(Cl)c(C(=O)Nc2nc(-c3ccccn3)cs2)c1 | 32 µM
34 | CC(=O)Nc1ccc(-c2noc(CC3CCCN(Cc4cccc(F)c4C)C3)n2)cc1 (centres undefined) | > 100 µM (inactive)
35 | COc1ccc(NS(=O)(=O)c2cccc(NC(=O)c3cc(F)cc(F)c3)c2)cc1 | > 100 µM (inactive)
36 | CCOc1ccccc1C(=O)Nc1nnc(-c2ccc3c(c2)OCO3)s1 | > 100 µM (inactive)
37 | CC(C)CC(=O)Nc1cc(C2CC2)nn1-c1nc2c(c(=O)[nH]1)CCCC2 | > 100 µM (inactive)
38 | Cc1[nH]n2c(=O)c3c(nc2c1-c1ccc(Br)cc1)CCCC3 | > 100 µM (inactive)
39 | COc1cccc(-c2cc(C(F)(F)F)nc(-n3ccc([N+](=O)[O-])n3)n2)c1 | > 100 µM (inactive)
40 | Cc1ccc2c(c1)SC(C(=O)Nc1n[nH]c(-c3ccccn3)n1)C2 (centres undefined) | > 100 µM (inactive)
41 | Cc1cc2nc(N3CC[C@H]3C(N)=O)nc(Nc3cc(C4CC4)[nH]n3)c2s1 | > 100 µM (inactive)
42 | Cc1ccccc1NS(=O)(=O)c1ccc2[nH]cc(C(=O)NC3CCCC3)c(=O)c2c1 | 13 µM
43 | Cc1[nH]nc(Nc2ccnc3[nH]ccc23)c1C | 79 µM
44 | CN(C)c1ncc(-c2cncn2CCOc2ccc(Cl)cc2)cn1 | 0.05 µM

Next, values leading:

Row | IC50 | Compound
45 | > 100 µM (inactive) | CCNc1cc(-c2ccccn2)nc(Nc2ccccc2)n1
46 | 50 µM | O=C(NC1CCN(C2Cc3ccc(NS(=O)(=O)c4cc(F)cc(F)c4)cc3C2)CC1)C1CC1 (centres undefined)
47 | > 100 µM (inactive) | Cc1cnc(Nc2cc(Cc3ccccc3)nc(NC3CCC(O)CC3)n2)s1 (centres undefined)
48 | 20 µM | CC(C)c1cc(Nc2cc(Cc3ccccc3)nc(NC3CCC(O)CC3)n2)n[nH]1 (centres undefined)
49 | 10 µM | NC(=O)c1cc(F)ccc1Nc1nc(NC2CCC(O)CC2)ncc1Br (centres undefined)
50 | > 100 µM (inactive) | CCOc1ccc(OCC(=O)N2c3ccccc3CC2C(=O)NC)cc1 (centres undefined)
51 | 79 µM | CC(C)(C)C(=O)NCCc1csc(-c2ccc(F)cc2)n1
52 | 32 µM | O=C(Cc1ccccc1)Nc1[nH]nc2sc(C(=O)NC3CCCC3)cc12
53 | > 100 µM (inactive) | O=C(Nc1ccc(S(=O)(=O)N2CCCC2)cc1)c1ccc([N+](=O)[O-])s1
54 | 0.79 µM | Cc1nc(-c2ccncc2)ncc1C(C)NC(=O)c1ccc(Cl)s1 (centres undefined)
55 | > 100 µM (inactive) | CCOc1cc(NCCCN2CCN(C)CC2)c2ncccc2c1
56 | 0.1 µM | c1ccc(CCNCc2cncc3nc(-c4cnccn4)n(C4CCCCC4)c23)cc1
57 | 79 µM | Nc1cc(-c2ccc3ncnc(N4CCOCC4)c3c2)cnc1N
58 | 25 µM | COc1ccc2ncc(=O)n(CCN3CCC(NCc4ccc(-c5cccs5)cc4)CC3)c2n1
59 | > 100 µM (inactive) | O=C(Nc1nc(-c2ccccn2)cs1)c1ccccc1-n1cnnn1
60 | 0.1 µM | Cc1ccc(C)c(OC2CCN(C(=O)C(C)n3ccnc3)CC2)c1 (centres undefined)
61 | > 100 µM (inactive) | O=C(Nc1ccc(Br)cn1)c1ccc(Cn2cnc([N+](=O)[O-])n2)cc1
62 | 50 µM | COc1ccc(C2CC(c3ccccc3Cl)=NN2C(=O)CNC(=O)C2CCC2)cc1 (centres undefined)
63 | 20 µM | Cc1ccc(-c2csc(NC(=O)C=Cc3ccc(S(=O)(=O)N4CCOCC4)cc3)n2)o1
64 | > 100 µM (inactive) | COc1cccc(-c2c(C)nn(-c3nc(N)nc(-c4ccccn4)n3)c2N)c1
65 | 0.1 µM | CNc1cncc(C2CCCN2C(=O)Cc2ccc3ccccc3c2)n1 (centres undefined)
66 | 4 µM | CCOc1cnn(C)c(=O)c1Nc1ccc(C(=O)NCc2ccc(F)cc2)cc1
67 | 0.1 µM | O=C1CCCCCC1(Cc1cnc[nH]1)c1ccc(Cl)cc1Cl (centres undefined)
68 | > 100 µM (inactive) | c1ccc2[nH]c(-c3ccc(N4CCCC4)nc3)nc2c1
69 | 50 µM | COc1ccc(Nc2nc(-c3ccccn3)cc(N3CCCC(O)C3)n2)cc1 (centres undefined)
70 | > 100 µM (inactive) | CC(C)(C)C(=O)Nc1cc(C2CC2)nn1-c1nc2c(c(=O)[nH]1)CCCC2
71 | 0.16 µM | CC(Cn1ccnc1)NC(=O)C=Cc1ccc(Cl)cc1 (centres undefined)
72 | > 100 µM (inactive) | CNc1c(C(N)=O)c(-c2ccc3scnc3c2)nn1CC(F)(F)F
73 | 6.3 µM | COc1ccc(NC(=O)c2ccc(NC(=O)CN(c3ccccc3C)S(C)(=O)=O)cc2)cc1
74 | 16 µM | Cc1ccccc1CNc1cc(C2CC2)nc(-c2nccn2C)n1
